Experiments:
[1] = system: IL-6; assay: LPS-induced IL-6 level in RAW264.7 culture supernatants (ELISA); assay type: cell-based, mouse; settings: RAW264.7 cells; for LPS-induced IL-6 level in culture supernatants: 30 min pretreatment, LPS 24 h
Procedure: Mouse RAW264.7 macrophages were from the American Type Culture Collection and cultured in DMEM containing 10% FBS. […] The duration of LPS (100 ng/ml) treatment varied depending on the experiment.
Moreover, RAW264.7 cells and IL-6 promoter-luciferase plasmid transfected RAW264.7 cells were pretreated with different concentrations of 5-MTP for 30 min, followed by LPS stimulation for 8 h. IL-6 promoter activity was measured by luciferase assay. IL-6 level in culture supernatants was measured by ELISA.
Furthermore, RAW264.7 cells were treated with different concentrations of 5-MTP or 5-MTPE for 24 h. Cell viability was determined by MTT assay. In another experiment, after pretreating RAW264.7 cells with different concentrations of 5-MTP or 5-MTPE for 30 min, cells were stimulated with LPS for 24 h. IL-6 level in culture supernatants was measured by ELISA.
Herein, after pretreating RAW264.7 cells with different concentrations of 5-MTP, 5-MTPE, COX-2 inhibitors (NSC398 or SC560) and NF-κB inhibitor JSH-23 for 30 min, cells were stimulated with LPS. In addition, RAW264.7 cells were also transfected with COX-2 promoter-luciferase plasmid. After 24 h transfection, the cells were incubated with LPS for 8 h. Luciferase activity as measured.

[2] = system: chemokines; assay: Serum chemokine level in LPS-injected mice (ELISA); assay type: in vivo; settings: 5-MTP 23.4 mg/kg, 24 h
Procedure: Furthermore, chemokine level was measured by ELISA in the serum of saline or LPS-injected mice with or without saline or 5-MTP (23.4 mg/kg) after 24 h (n=10). The results shown in FIG. 8C indicate that LPS-induced elevation of chemokines, CXCL1, MCP-1, RANTES and eotaxin in the serum was blunted by 5-MTP treatment at 24 h.

[3] = system: ERK½; assay: LPS-induced ERK½ phosphorylation in RAW264.7 cells (immunoblot); assay type: cell-based, mouse; settings: LPS 4 h
Procedure: Cellular protein were resolved by 5% to 20% SDS-PAGE and transferred to nitrocellulose membranes and blotted with specific antibodies as previously described (Lee, G. L., et al.).
After pretreating RAW264.7 cells with different concentrations of 5-MTP for 30 min, cells were stimulated with LPS for 4 h. Cell lysates were immunoblotted with antibodies for p38, phospho-p38 (p-p38), ERK½, phospho-ERK½ (p-ERK½) or β-actin. […] Activation of p38 MAPK in macrophages is required for TLR-induced NF-κB activation, which is one of the key factors affecting TLR-induced cytokine production. Thus, we evaluated the effect of 5-MTP on LPS-induced. NF-κB activation.

[4] = system: NF-κB p65; assay: Phospho-NF-κB p65 (Ser536) in RAW264.7 cells (immunoblot); assay type: cell-based, mouse; settings: LPS 4 h
Procedure: Furthermore, after pretreating RAW264.7 cells with different concentrations of 5-MTP for 30 min, cells were stimulated with. LPS for 4 h. NF-κB p65, phospho-NF-κB p65 (p-p65) (Ser536) or β-actin was determined by immunoblotting with specific antibodies. Also, peritoneal macrophages were treated with LPS with or without 5-MTP (50 μM) for the indicated time. Phospho-p65 in the lysates was analyzed by an ELISA kit. The results are shown in FIG. 10D, in which the error bars denote mean ±SD (n=3). According to FIGS. 10C-10D, 5-MTP decreased LPS-induced phosphorylation of NF-κB p65 not only in RAW264.7 cells (FIG. 10C) but also in peritoneal macrophages (FIG. 10D).

[5] = system: atherosclerotic lesions; assay: Lipid accumulation and atherosclerotic lesions in ApoE-deficient mice on high fat diet; assay type: in vivo; settings: 23.5 mg/kg 3 times a week i.p., 8 weeks
Procedure: ApoE-deficient mice at 6 weeks were placed on a Western high fat diet containing 1.25% cholesterol and 21% fat (Research. Diets). The mice were simultaneously treated with vehicle (PBS), 5-MTP or 5-MTPE (23.4 mg/kg body weight, 3 times a week) by intraperitoneal injection. After 8 weeks, the aortic trees were dissected and lesions examined in the aortic arch and its branches. The aortas were carefully freed of connective and adipose tissue under a dissection microscope, opened longitudinally and stained with Oil red 0.
Since reduction of serum 5-MTP in CAD patients may be associated with the development of vascular disease, we determined whether exogenous 5-MTP derivatives exert protective effect in the development of atherosclerosis. ApoE-deficient mice were fed a Western high fat diet containing 1.25% cholesterol and 21% fat (Research Diets) starting at 6 weeks of age. The mice were simultaneously treated with vehicle (PBS), 5-MTP or 5-MTPE (23.5 mg/kg body weight, 3 times a week) by intraperitoneal injection. After 8 weeks, the aortic trees were dissected and lesions examined in the aortic arch and its branches.

[6] = system: vascular smooth muscle cells; assay: Calcifying medium-induced calcification in vascular smooth muscle cells; assay type: cell-based
From the text: Vascular smooth muscle cell (VSMC) calcification is the major phenomenon to induce atherosclerotic vascular calcification in cardiovascular disease (CVD). We next investigated the effect of 5-MTP derivatives on VSMC calcification.

[7] = system: ligated carotid arteries; assay: Neointima formation model of carotid artery ligation; assay type: in vivo, mice; settings: 100 mg/kg IP 3 times a week, four weeks after ligation
Procedure: Approximately 12-week-old male C57BL/6 wild-type mice ational Laboratory Animal Center, Taiwan) were subjected to a neointima formation model by ligating the left common carotid artery (LCCA). The Institutional. Animal Care and Use Committee of National Health Research Institutes, Taiwan approved all experimental procedures (#NHRI-IACUC-101144-A). Mice were anesthetized with tribromoethanol solution at a dose of 250 mg/kg by IP injection. After assessing the level of anesthesia by checking the pedal reflex, the LCCA was exposed through a midline incision in the neck. […] Following surgery, mice were treated with vehicle (PBS) or 100 mg/kg of 5-MTP (Sigma, M4001) by IP injection 3 times a week. 5-MTP was dissolved in 0.05 N HCl (made in PBS) first, pH adjusted to 7.4 by NaOH, and then a stock solution of 6.5 mg/mL was prepared with PBS. The stock solution was then sterilized by filtering through a 0.22 μm-filter before use. At indicated time points (4, 7, and 28 d after surgery), mice were anesthetized with tribromoethanol solution (500-750 mg/kg), perfused with saline, followed by 10% neutral-buffered-formalin. The contralateral control (right common carotid artery) and ligated LCCA were then carefully dissected, excised, and immersed in 10% formalin before processing and embedding in paraffin. […]

Row | SMILES | LPS-induced IL-6 level in culture supernatants [1] | LPS-induced IL-6 protein expression ([1]; LPS 8 h) | LPS-induced elevation of CXCL1 in serum [2] | LPS-induced elevation of MCP-1 in serum [2] | LPS-induced elevation of RANTES in serum [2] | LPS-induced elevation of eotaxin in serum [2] | phosphorylation of ERK½ [3] | LPS-induced phosphorylation of NF-κB p65 [4] | lipid accumulation in the arteries ([5]; ApoE-deficient mice) | calcifying medium-induced calcification [6] | intima/media area ratio [7] | intimal thickening [7] | LPS-induced IL-6 level in culture supernatants ([1]; listed as 5MTPE) | suppressive capacity on IL-6 production in comparison with 5-MTP, COX-2 inhibitors ([1]; 24 h after LPS) | IL-6 suppressive activity compared with JSH-23 ([1]; LPS) | lipid accumulation in atherosclerotic lesions (Oil red O) [5]
1 | COc1ccc2[nH]cc(C[C@H](N)C(=O)O)c2c1 [5-MTP, 5-methoxytryptophan] | dose-dependently blocked | inhibited | blunted | blunted | blunted | blunted | but not that of ERK½ | decreased | less lipid accumulation | reduced | 0.58±0.11 | reduced |  |  |  | 
2 | COC(=O)C(N)Cc1c[nH]c2ccc(OC)cc12 (stereo not drawn) [5-MTPE, ester-5-MTP] | significantly inhibited |  |  |  |  |  |  |  |  | reduced |  |  | dose-dependently blocked | better suppressive capacity | potent than that of NF-κB inhibitor JSH-23 | suppressed lipid accumulation

Reference: patent publication US10577322B2, “5-methoxytryptophan and its derivatives and uses thereof” (National Health Research Institutes, priority 2015, dated 2020)
